Source: US11186576B2, “Pyrazolo[1,5-A][1,3,5]triazine and pyrazolo[1,5-A]pyrimidine derivatives as CDK inhibitors” (Aurigene Discovery Technologies Limited, priority 2015, dated 2021)

How the values were obtained:
CDK7/CycH/MNAT1 = CDK7/CycH/MNAT1 (Homo sapiens (Human), UniProt P50613); test: Biochemical assay for CDK7 (TR-FRET kinase assay); conditions: 60 min pre-incubation, 1 mM ATP; for inhibition at 10 µM: 10 μM compound, read-out: % inhibition @ 10 μM; for IC50: read-out: IC50
Method in brief: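 CDK7/CycH/MNAT1 (5 nM) was preincubated with compound for 60 min at room temperature, then reacted for 60 min with 100 nM ULight-MBP and 1 mM ATP in 1% DMSO. Irreversibility was probed with 20, 60 and 180 min preincubations.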

[1] = test system: RNA polymerase II CTD phosphorylation (MDA-MB-231/NCI-H358 cells); test: Inhibition of RNA polymerase II CTD phosphorylation in cell western assay; assay type: cell-based; conditions: 4 hours incubation, phospho RNA Pol II Ser-5 or Ser-2
Method: 25000 cells (MDA-MB-231/NCI-H358) were seeded in 96 well black clear bottom plate incubated for overnight before addition of selected compound. 3 fold dilutions of selected compound diluted in DMSO starting from 10 μM, added to cells and incubated for 4 hours at 37° C., 5% CO2 incubator. Cells were washed once with 100 μl of phosphate buffered saline (sigma #P3813), then fixed with 100 μl/well of 4% Para formaldehyde for 60 min at room temperature, in dark. The cells were washed 3 times with 100 μl of wash buffer (PBS with 0.1% Triton-X-100), later blocked for 2 hours at room temperature in blocking buffer (5% BSA in PBST). Cells were stained overnight at 4° C. with Phospho RNA Pol II (S5) (Millipore #04-1572, Abcam #5131) or Phospho RNA Pol II (Ser-2), antibody (Bethyl labs #A300-654-A) in blocking buffer. Post incubation cells were washed with Delifia wash buffer (Perkin Elmer #4010-0010). Cells were treated with LANCE secondary antibodies (LANCE® Eu-W1024 perkin elmer #AD-0076 for phospho Ser-5 CTD RNA pol-II and Delfia Eu-N1 anti rabbit IgG Perkin elmer #AD0106 for phospho Ser-2 CTD RNA pol-II) for 2 hours in assay buffer (Perkin Elmer #1244-111), Cells were washed 3 times with Delfia wash buffer post incubation, Enhancement solution (Perkin Elmer #1244-105) added and incubated for 20 mins. Europium readings were taken in Victor-3 instrument. Cell normalization was done using Hoechst dye (0.5 μg/ml).
Selected compounds were screened in the above mentioned assay procedure. The EC50 values are summarised in the below table; wherein group “A” refers to an EC50 value of less than or equal to 1 μM, group “B” refers to EC50 value in range of 1 to 10 μM and group “C” refers to EC50 value of greater than 10 μM.

CDK7/CycH/MNAT1, sequence (P50613 whole entry): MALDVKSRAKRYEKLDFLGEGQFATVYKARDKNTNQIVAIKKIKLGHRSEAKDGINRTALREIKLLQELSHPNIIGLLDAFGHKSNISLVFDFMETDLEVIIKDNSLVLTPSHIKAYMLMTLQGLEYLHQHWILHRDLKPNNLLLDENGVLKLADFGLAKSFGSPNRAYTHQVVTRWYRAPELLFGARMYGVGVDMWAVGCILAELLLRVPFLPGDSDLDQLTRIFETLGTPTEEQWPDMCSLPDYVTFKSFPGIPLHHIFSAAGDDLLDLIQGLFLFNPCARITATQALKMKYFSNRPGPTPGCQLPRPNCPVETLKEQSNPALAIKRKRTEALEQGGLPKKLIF
CDK7/CycH/MNAT1, sequence (P51946 whole entry partner): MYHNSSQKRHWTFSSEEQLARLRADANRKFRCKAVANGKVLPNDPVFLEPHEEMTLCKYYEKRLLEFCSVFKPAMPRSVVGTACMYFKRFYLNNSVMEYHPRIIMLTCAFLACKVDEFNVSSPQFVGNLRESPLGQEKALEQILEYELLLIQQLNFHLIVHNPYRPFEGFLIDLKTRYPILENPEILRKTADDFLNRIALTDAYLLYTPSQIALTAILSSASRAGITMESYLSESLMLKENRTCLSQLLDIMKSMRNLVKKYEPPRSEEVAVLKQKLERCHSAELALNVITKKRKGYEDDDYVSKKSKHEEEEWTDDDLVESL
CDK7/CycH/MNAT1, sequence (P51948 whole entry partner): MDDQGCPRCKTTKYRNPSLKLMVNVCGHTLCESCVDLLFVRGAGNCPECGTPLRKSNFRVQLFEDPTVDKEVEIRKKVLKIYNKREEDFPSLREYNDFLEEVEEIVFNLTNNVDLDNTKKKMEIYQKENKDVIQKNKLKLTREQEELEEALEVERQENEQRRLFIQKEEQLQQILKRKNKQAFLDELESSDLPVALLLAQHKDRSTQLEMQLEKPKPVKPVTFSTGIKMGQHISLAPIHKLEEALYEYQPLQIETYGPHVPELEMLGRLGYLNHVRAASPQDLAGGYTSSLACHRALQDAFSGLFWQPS

| Compound | inhibition at 10 µM (CDK7/CycH/MNAT1) | IC50 (CDK7/CycH/MNAT1) | EC50 [1] |
| --- | --- | --- | --- |
| C=CC(=O)Nc1cn(C)nc1C(=O)Nc1cccc(CNc2nc(NC3CCOCC3)nc3c(C(C)C)cnn23)c1 [Compound 85, 4-acrylamido-N-(3-(((8-isopropyl-2-((tetrahydro-2H-pyran-4-yl)amino)pyrazolo[1,5-a][1,3,5]triazin-4-yl)amino)methyl)phenyl)-1-methyl-1H-pyrazole-3-carboxamide] | 99% | < 300 nM | 1000 to 10000 nM |
| C=CC(=O)N1CCC(C(=O)Nc2cccc(CNc3nc(OC4CCN(C)CC4)nc4c(CC)cnn34)c2)CC1 [Compound 88, 1-acryloyl-N-(3-(((8-ethyl-2-((1-methylpiperidin-4-yl)oxy)pyrazolo [1,5-a][1,3,5]triazin-4-yl)amino)methyl)phenyl)piperidine-4-carboxamide] | 97% | < 300 nM | 1000 to 10000 nM |
| C=CC(=O)N[C@H]1CC[C@@H](C(=O)Nc2cccc(CNc3nc(OC4CCN(C)CC4)nc4c(CC)cnn34)c2)CC1 [Compound 90, (1,4-cis)-4-acrylamido-N-(3-(((8-ethyl-2-((1-methylpiperidin-4-yl)oxy)pyrazolo[1,5-a][1,3,5]triazin-4-yl)amino)methyl)phenyl)cyclohexane-1-carboxamide] | 95% | < 300 nM | 1000 to 10000 nM |
| C=CC(=O)N[C@H]1CC[C@H](C(=O)Nc2cccc(CNc3nc(OC4CCN(C)CC4)nc4c(C(C)C)cnn34)c2)CC1 [Compound 91, (1,4-trans)-4-acrylamido-N-(3-(((8-isoproprayl-2-((1-methylpiperidin-4-yl)oxy)pyrazolo[1,5-a][1,3,5]triazin-4-yl)amino)methyl)phenyl)cyclohexane-1-carboxamide] | 94% | < 300 nM | > 10000 nM |
| C=CC(=O)N1CCC1C(=O)Nc1cccc(CNc2nc(OC3CCN(C)CC3)nc3c(C(C)C)cnn23)c1 (stereo not drawn) [Compound 94, 1-acryloyl-N-(3-(((8-isopropyl-2-((1-methylpiperidin-4-yl)oxy)pyrazolo[1,5-a][1,3,5]triazin-4-yl)amino)methyl)phenyl)azetidine-2-carboxamide] | 99% | < 300 nM | ≤ 1000 nM |
| C=CC(=O)N1CCC(C(=O)Nc2cccc(CNc3nc(OC4CCOCC4)nc4c(C(C)C)cnn34)c2)C1 (stereo not drawn) [Compound 95, 1-acryloyl-N-(3-(((8-isopropyl-2-((tetrahydro-2H-pyran-4-yl)oxy)pyrazolo[1,5-a][1,3,5]triazin-4-yl)amino)methyl)phenyl)pyrrolidine-3-carboxamide] | 93% | < 300 nM | ≤ 1000 nM |
| C=CC(=O)N1CCCC(C(=O)Nc2cccc(CNc3nc(OC4CCOCC4)nc4c(C(C)C)cnn34)c2)C1 (stereo not drawn) [Compound 96, 1-acryloyl-N-(3-(((8-isopropyl-2-((tetrahydro-2H-pyran-4-yl)oxy)pyrazolo[1,5-a][1,3,5]triazin-4-yl)amino)methyl)phenyl)piperidine-3-carboxamide] | 87% | 300 to 1000 nM | 1000 to 10000 nM |
| C=CC(=O)N[C@H]1CC[C@@H](C(=O)Nc2cccc(CNc3nc(OC4CCOCC4)nc4c(C(C)C)cnn34)c2)CC1 [Compound 97, (1,4-cis)-4-acrylamido-N-(3-(((8-isopropyl-2-((tetrahydro-2H-pyran-4-yl)oxy)pyrazolo[1,5-a][1,3,5]triazin-4-yl)amino)methyl)phenyl)cyclohexane-1-carboxamide] | 87% | 300 to 1000 nM | 1000 to 10000 nM |
| C=CC(=O)N[C@H]1CC[C@@H](C(=O)Nc2cccc(CNc3nc(OC4CCN(C)C4)nc4c(C(C)C)cnn34)c2)CC1 (stereo partly drawn) [Compound 101, (1,4-cis)-4-acrylamido-N-(3-(((8-isopropyl-2-((1-methylpyrrolidin-3-yl)oxy)pyrazolo[1,5-a][1,3,5]triazin-4-yl)amino)methyl)phenyl)cyclohexane-1-carboxamide] | 96% | < 300 nM | 1000 to 10000 nM |
| C=CC(=O)N[C@H]1CC[C@@H](C(=O)Nc2cccc(CNc3nc(OC4CCN(C)CC4)nc4c(C5CC5)cnn34)c2)CC1 [Compound 105, (1,4-cis)-4-acrylamido-N-(3-(((8-cyclopropyl-2-((1-methylpiperidin-4-yl)oxy)pyrazolo[1,5-a][1,3,5]triazin-4-yl)amino)methyl)phenyl)cyclohexane-1-carboxamide] | 92% | < 300 nM | > 10000 nM |
| C=CC(=O)N1CCC(C(=O)Nc2cccc(CNc3nc(OCCCCN)nc4c(C(C)C)cnn34)c2)CC1 [Compound 107, 1-acryloyl-N-(3-(((2-(4-aminobutoxy)-8-isopropylpyrazolo[1,5-a][1,3,5]triazin-4-yl)amino)methyl)phenyl)piperidine-4-carboxamide] | 95% | < 300 nM | 1000 to 10000 nM |

Continued, values first:

| inhibition at 10 µM (CDK7/CycH/MNAT1) | IC50 (CDK7/CycH/MNAT1) | EC50 [1] | Compound |
| --- | --- | --- | --- |
| 91% | > 1000 nM | 1000 to 10000 nM | C=CC(=O)N1CCC(C(=O)Nc2cccc(CNc3nc(OC4CCNCC4)nc4c(C(C)C)cnn34)c2)CC1 [Compound 106, 1-acryloyl-N-(3-(((8-isopropyl-2-(piperidin-4-yloxy)pyrazolo[1,5-a][1,3,5]triazin-4-yl)amino)methyl)phenyl)piperidine-4-carboxamide] |
| 99% | < 300 nM | 1000 to 10000 nM | C=CC(=O)N1CCC(C(=O)Nc2cccc(CNc3nc(OC4CCN(C)CC4)nc4c(C(C)C)cnn34)c2)C1 (stereo not drawn) [Compound 108, 1-acryloyl-N-(3-(((8-isopropyl-2-((1-methylpiperidin-4-yl)oxy)pyrazolo[1,5-a][1,3,5]triazin-4-yl)amino)methyl)phenyl)pyrrolidine-3-carboxamide] |
| 95% | < 300 nM | 1000 to 10000 nM | C=CC(=O)N1CCC(C(=O)Nc2cccc(CNc3nc(OC4CCN(C)CC4)nc4c(C(C)C)cnn34)c2)CC1 [Compound 111, 1-acryloyl-N-(3-(((8-isopropyl-2-((1-methylpiperidin-4-yl)oxy)pyrazolo[1,5-a][1,3,5]triazin-4-yl)amino)methyl)phenyl)piperidine-4-carboxamide] |
| 97% | < 300 nM | 1000 to 10000 nM | C=CC(=O)NC1CCCC(C(=O)Nc2cccc(CNc3nc(OC4CCN(C)CC4)nc4c(C(C)C)cnn34)c2)C1 (stereo not drawn) [Compound 114, 3-acrylamido-N-(3-(((8-isopropyl-2-((1-methylpiperidin-4-yl)oxy)pyrazolo[1,5-a][1,3,5]triazin-4-yl)amino)methyl)phenyl)cyclohexane-1-carboxamide] |
| 94% | < 300 nM | ≤ 1000 nM | C=CC(=O)N[C@H]1CC[C@@H](C(=O)Nc2cccc(CNc3nc(OC4CCN(C)CC4)nc4c(C(C)C)cnn34)c2)CC1 [Compound 115, (1,4-cis)-4-acrylamido-N-(3-(((8-isopropyl-2-((1-methylpiperidin-4-yl)oxy)pyrazolo[1,5-a][1,3,5]triazin-4-yl)amino)methyl)phenyl)cyclohexane-1-carboxamide] |
| 92% | < 300 nM | 1000 to 10000 nM | C=CC(=O)N1CCCC(C(=O)Nc2cccc(CNc3nc(OC4CCN(C)CC4)nc4c(C(C)C)cnn34)c2)C1 (stereo not drawn) [Compound 116, 1-acryloyl-N-(3-(((8-isopropyl-2-((1-methylpiperidin-4-yl)oxy)pyrazolo[1,5-a][1,3,5]triazin-4-yl)amino)methyl)phenyl)piperidine-3-carboxamide] |
| 95% | < 300 nM | 1000 to 10000 nM | C=CC(=O)N1CCCC(C(=O)Nc2cc(CNc3nc(OC4CCN(C)CC4)nc4c(C(C)C)cnn34)ccc2F)C1 (stereo not drawn) [Compound 117, 1-acryloyl-N-(2-fluoro-5-(((8-isopropyl-2-((1-methylpiperidin-4-yl)oxy)pyrazolo[1,5-a][1,3,5]triazin-4-yl)amino)methyl)phenyl)piperidine-3-carboxamide] |
| 99% | < 300 nM | > 10000 nM | C=CC(=O)N1CCCC(C(=O)Nc2cccc(C(C)Nc3nc(OC4CCN(C)CC4)nc4c(C(C)C)cnn34)c2)C1 (stereo not drawn) [Compound 119, 1-acryloyl-N-(3-(1-((8-isopropyl-2-((1-methylpiperidin-4-yl)oxy)pyrazolo[1,5-a][1,3,5]triazin-4-yl)amino)ethyl)phenyl)piperidine-3-carboxamide] |
